# According to ChEMBL document CHEMBL1124398, “Full agonists of CCK8 containing a nonhydrolyzable sulfated tyrosine residue” (J Med Chem, 1989):
# Starred links: 1 amine or outer side, 2 acyl side, 3 side chain; linkers in the order of their positions; H or OH if unused. Non-standard residues stand in square brackets, D forms with d. Residues, ends and D or L forms follow the SMILES beside them. Phe(4-CH2SO3H) = N[C@@H](Cc1ccc(CS(=O)(=O)O)cc1)C(=O)O; X1 = O=C([C@@H](Cc1ccc(CS(=O)(=O)O)cc1)N[*:1])[*:2]; Nle = CCCC[C@H](N)C(=O)O
# Experiments:
# Cavia porcellus [1] = organism: Cavia porcellus; assay: The compound was tested for the agonistic activity of amylase secretion by Guinea pig acini; assay type: functional
# Cavia porcellus [2] = organism: Cavia porcellus; assay: The compound was tested for the agonistic activity of contractile activities of Guinea pig ileum; assay type: functional
SMILES,EC50 (Cavia porcellus [1]) [nM],EC50 (Cavia porcellus [2]) [nM]
CCCC[C@H](NC(=O)[C@H](Cc1c[nH]c2ccccc12)NC(=O)CNC(=O)[C@H](CCCC)NC(=O)[C@@H](Cc1ccc(OS(=O)(=O)O)cc1)NC(=O)OC(C)(C)C)C(=O)N[C@@H](CC(=O)O)C(=O)N[C@@H](Cc1ccccc1)C(N)=O,4.5,28
CCCC[C@H](NC(=O)[C@H](Cc1ccc(OS(=O)(=O)O)cc1)NC(=O)OC(C)(C)C)C(=O)NCC(=O)N[C@@H](Cc1c[nH]c2ccccc12)C(=O)N[C@@H](CCCC)C(=O)N[C@@H](CC(=O)O)C(=O)N[C@@H](Cc1ccccc1)C(N)=O,0.28,–
CCCC[C@H](NC(=O)[C@H](Cc1ccc(CS(=O)(=O)O)cc1)NC(C)=O)C(=O)NCC(=O)N[C@@H](Cc1c[nH]c2ccccc12)C(=O)N[C@@H](CCCC)C(=O)N[C@@H](CC(=O)O)C(=O)N[C@@H](Cc1ccccc1)C(N)=O (Ac-[Phe(4-CH2SO3H)][Nle]GW[Nle]DF-NH2),0.33,3.8
CCCC[C@H](NC(=O)[C@H](Cc1c[nH]c2ccccc12)NC(=O)CNC(=O)[C@H](CCCC)NC(=O)[C@@H](Cc1ccc(CS(=O)(=O)O)cc1)NC(C)=O)C(=O)N[C@@H](CC(=O)O)C(=O)N[C@@H](Cc1ccccc1)C(N)=O (Ac-[X1][Nle]GW[Nle]DF-NH2),1.6,17
CSCC[C@H](NC(=O)[C@H](Cc1ccc(OS(=O)(=O)O)cc1)NC(=O)[C@@H](N)CC(=O)O)C(=O)NCC(=O)N[C@@H](Cc1c[nH]c2ccccc12)C(=O)N[C@@H](CCSC)C(=O)N[C@@H](CC(=O)O)C(=O)N[C@@H](Cc1ccccc1)C(N)=O [SINCALIDE],0.1,–
